The numbers were not newly measured in patent publication US7595169B2, “Method for determining percent platelet aggregation” (Accumetrics, Inc., priority 2005, dated 2009), which cites them from elsewhere.

For the data set, the system named is platelet aggregation. The conditions noted are these: patients with stable angina pectoris scheduled for elective coronary stent placement; literature study.

In the case of `COC(=O)[C@H](c1ccccc1Cl)N1CCc2sccc2C1` [clopidogrel], the “patients receiving the drug who did not achieve the expected platelet aggregation inhibition” value is reported as “at least 10%”.
